Data taken from ChEMBL document CHEMBL1137745, “Computational modeling and surface plasmon resonance analyses in the assessment of peptide ligands interacting with fibrin gamma(312-324) epitope” (Eur J Med Chem, 2009).
Peptide text beside a SMILES is read from it.

Columns and labels:
[1] = Binding affinity to gamma (312-324) epitope of human fibrinogen measured at flow rate of 5 ul/min by Biacore X system
[2] = Binding affinity to gamma (312-324) epitope of human fibrinogen measured at flow rate of 30 ul/min by Biacore X system
[3] = Binding affinity to gamma (312-324) epitope of human fibrinogen by Biacore X system

Compound | Kd [1] [µM] | Kd [2] [µM] | Kd [3] [µM]
N=C(N)NCCC[C@H](NC(=O)[C@H](CC(=O)O)NC(=O)[C@@H](N)CCCCN)C(N)=O (H-Lys-Asp-Arg-NH2) | 52.6 | 16.2 | 34.4
NCCCC[C@H](NC(=O)[C@H](CCC(=O)O)NC(=O)[C@@H](N)CCCCN)C(N)=O (H-Lys-Glu-Lys-NH2) | 35 | 15 | 25

Compounds with a lower Kd [1], results first:

Kd [1] [µM] | Kd [2] [µM] | Kd [3] [µM] | Compound
30.4 | 16.8 | 23.6 | Ac-RDKDR-OH
13 | 21.9 | 17.5 | N=C(N)NCCC[C@H](NC(=O)[C@H](CCC(=O)O)NC(=O)[C@@H](N)CCCCN)C(N)=O (H-Lys-Glu-Arg-NH2)
0.3 | 0.2 | 0.25 | H-RDKDR-NH2
